According to patent publication US10526358B2, “Crystalline forms” (GRUNENTHAL GMBH, priority 2016, dated 2020):

Legend:
[1] = in vivo; cited from earlier work
[2] = apparent water solubility at room temperature; format: physicochemical
[3] = FDA SBA; cited from earlier work
[4] = cited from earlier work
[5] = FDA SBA; cited from earlier work; remark: listed apart in the source

Q: What does the source list for O=P(O)(O)C(O)(Cn1ccnc1)P(=O)(O)O [Zoledronic acid, (1-hydroxy-2-imidazol-1-yl-1-phosphono-ethyl)phosphonic acid]?
A: gastric and intestinal irritations [1]: severe gastric and intestinal irritations; apparent water solubility [2]: few; permeability in the GI tract [3]: poor permeability; solubility in 0.1 N HCl solution ([4]; 0.1 N HCl): sparingly soluble; solubility in 0.1 N NaOH ([4]; 0.1 N NaOH): freely soluble; solubility in various organic solvents ([4]; various organic solvents): practically insoluble; solubility in water ([4]; water): sparingly soluble; oral bioavailability [5]: approximately 1%
